Patent publication US20160129089A1, “COMBINATION THERAPY” (ANTISENSE THERAPEUTICS LTD, priority 2013, published 2016)
e = 2'-O-(2-methoxyethyl) (MOE); d = 2'-deoxy (DNA)

How the values were obtained:
[1] = system: human growth hormone receptor mRNA; test: Inhibition of human growth hormone receptor mRNA levels by antisense oligonucleotides, quantitative real-time PCR, MCF7 cells; assay type: cell-based; set-up: concentration or dose not given beside the values; details: averages from three experiments
Method: “Target site” indicates the first (5′-most) nucleotide number on the particular target sequence to which the oligonucleotide binds. “% Inhib” indicates the inhibitory effect on hGHR mRNA levels by quantitative real-time PCR. Data are averages from three experiments in which MCF7 cells were treated with the antisense oligonucleotides.
All oligonucelotides in Table 1 are chimeric oligonucleotides (“gapmers”), 20 nucleotides in length, composed of a central “gap” region consisting of ten 2′-deoxynucleotides, which is flanked on both sides (5′ and 3′ directions) by five-nucleotide “wings”. The wings are composed of 2′-methoxyethyl (2′-MOE) nucleotides. The internucleoside (backbone) linkages are phosphorothioate (P═S) throughout the oligonucleotide. All uracils are 5-methyluracils (^MeU). Typically, the oligonucleotide is synthesized using 2-methoxyethyl modified thymidines not 5-methyluracils. All pyrimidines are C5 methylated (i.e., U, T, C are C5 methylated).

liver GHr RNA = test: Monotherapy and combination mouse study: relative liver GHR RNA; assay type: in vivo, mice; details: compared to saline control; for reduction of liver GHr RNA: week 3
Source text: (§1) The GHr and IGF-I RNA data were statistically analysed using one-way ANOVA followed by Dunnetts test when comparing treated to saline control. The sIGF-I data were statistically analyzed using one-way […] comparisons.

liver IGF-I RNA = test: Monotherapy and combination mouse study: relative liver IGF-I RNA; assay type: in vivo, mice; details: compared to saline control; for reduction of liver IGF-I RNA: week 3, p=0.05
Source text: as §1

serum IGF-I = test: Monotherapy and combination mouse study: serum IGF-I; assay type: in vivo, mice; details: for reduction of sIGF-I: week 1
Source text: as §1

Molecule: 272357 (antisense TAGGGTCCATCTTTCAAGAC; sugars from the 5' end e5 d10 e5, all phosphorothioate, methylation of C not given here) [compound 272357]
- % INHIB (inhibitory effect on hGHR mRNA levels) [1]: 62%

Molecule: 272358 (antisense TCTCCAGATAGAATCTAAAC; sugars from the 5' end e5 d10 e5, all phosphorothioate, methylation of C not given here) [compound 272358]
- % INHIB (inhibitory effect on hGHR mRNA levels) [1]: 53%

Molecule: 272359 (antisense TCCAAATATTCTGGTACTTT; sugars from the 5' end e5 d10 e5, all phosphorothioate, methylation of C not given here) [compound 272359]
- % INHIB (inhibitory effect on hGHR mRNA levels) [1]: 72%

Molecule: 272360 (antisense TATTAGTTACCTTGAGGAGA; sugars from the 5' end e5 d10 e5, all phosphorothioate, methylation of C not given here) [compound 272360]
- % INHIB (inhibitory effect on hGHR mRNA levels) [1]: 0%

Molecule: 272361 (antisense ATTTTCCTTCCTAGAAAATA; sugars from the 5' end e5 d10 e5, all phosphorothioate, methylation of C not given here) [compound 272361]
- % INHIB (inhibitory effect on hGHR mRNA levels) [1]: 10%

Molecule: C[C@@H](O)[C@@H]1NC(=O)[C@H](CCCCN)NC(=O)[C@@H](Cc2c[nH]c3ccccc23)NC(=O)[C@H](Cc2ccccc2)NC(=O)[C@@H](NC(=O)[C@H](N)Cc2ccccc2)CSSC[C@@H](C(=O)N[C@H](CO)[C@@H](C)O)NC1=O [Octreotide, reference compound]
- reduction of liver GHr RNA (liver GHr RNA; octreotide 1.25 mg/kg twice daily, p=0.001): 82.9%
- reduction of liver IGF-I RNA (liver IGF-I RNA; octreotide 1.25 mg/kg twice daily): 47.7%
- reduction of sIGF-I (serum IGF-I; octreotide 1.25 mg/kg twice daily, compared to baseline control levels, p<0.04): 15%
- reduction of sIGF-I (serum IGF-I; octreotide 1.25 mg/kg twice daily, p=0.012): 25.1%
- reduction of serum IGF-I (serum IGF-I; octreotide 1.25 mg/kg twice daily, week 3, compared to saline control, p=0.03): 25.2%

Molecule: Somavert: current medicinal treatment for acromegaly, used as monotherapy or with a Somatostatin agonist
- reduction of liver GHr RNA (liver GHr RNA; Somavert 20 mg/kg, every other day, p=0.01): 79.9%
- increase of liver GHr RNA (liver GHr RNA; Somavert lower dose 5 mg/kg, every other day, p=0.05): 23%
- reduction of liver IGF-I RNA (liver IGF-I RNA; Somavert 20 mg/kg, every other day): 43.2%
- effect on liver IGF-I RNA (liver IGF-I RNA; Somavert lower dose 5 mg/kg, every other day): no effect
- increase of sIGF-I levels (serum IGF-I; higher Somavert dose, 1 week, patent suspects an issue with the assay): > 2 fold
